Here are results for four compounds from patent US20070093469A1, “Substituted azetidine compounds as cyclooxygenase-1-cyclooxygenase-2 inhibitors, and their preparation and use as medicaments” (LABORATORIOS DEL DR. ESTEVE S.A, priority 2004, published 2007).

In general, IC50 refers to the point on the concentration scale where inhibition reaches its midpoint. By ED50 is commonly meant the dose that gives a 50% effect, or the effect in half of the subjects. What is called melting point is the temperature, or range, at which the solid turns liquid. As usually defined, the inhibition is the drop in the measured response relative to a control, in per cent.

Structures are written as SMILES.

One data set deals with T1, Cox-1 enzyme (Ovis aries, UniProt P05979).
T1 construct: purchased Cayman Chemical 60100
T1 sequence (P05979 25-600): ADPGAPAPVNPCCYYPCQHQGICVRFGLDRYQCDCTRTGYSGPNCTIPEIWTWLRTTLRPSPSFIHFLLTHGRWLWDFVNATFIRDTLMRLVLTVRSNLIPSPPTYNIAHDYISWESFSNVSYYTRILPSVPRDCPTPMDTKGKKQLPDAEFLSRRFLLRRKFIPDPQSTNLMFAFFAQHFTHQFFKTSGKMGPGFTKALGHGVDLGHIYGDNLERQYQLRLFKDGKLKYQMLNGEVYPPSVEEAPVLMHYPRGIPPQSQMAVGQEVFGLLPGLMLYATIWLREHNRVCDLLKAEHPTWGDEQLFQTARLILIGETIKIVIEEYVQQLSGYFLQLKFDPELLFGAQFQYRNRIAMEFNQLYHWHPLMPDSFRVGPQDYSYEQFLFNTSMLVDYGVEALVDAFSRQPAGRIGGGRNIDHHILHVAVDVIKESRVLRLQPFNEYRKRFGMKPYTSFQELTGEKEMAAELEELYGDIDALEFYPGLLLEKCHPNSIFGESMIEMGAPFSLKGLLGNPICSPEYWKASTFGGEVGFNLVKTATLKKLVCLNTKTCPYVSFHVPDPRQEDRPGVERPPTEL
As to the kind of experiment: Cox-1/Cox-2 enzyme assay (Cox-1). In kind it is biochemical. As to conditions: for IC50: enzyme assay; for inhibition at 50 µM: read-out: % inhibition 5 × 10^−5 M COX-1. The protocol:
(§1) I. Cox-1/Cox-2 Enzyme Assay:
(§2) The Cox-1/Cox-2 enzyme assay for the inventive azetidine compounds is carried out according to the following description:
(§3) Immediately after the addition of the substrate, the slope corresponding to the optical density increase at 480 nm is recorded for 1 minute. The reaction is monitored with a Hewlett-Packard 8452A spectrophotometer.

The target of another data set is T2, Cox-2 enzyme (Ovis aries, UniProt P79208).
T2 construct: purchased Cayman Chemical 60120
T2 sequence (P79208 17-603): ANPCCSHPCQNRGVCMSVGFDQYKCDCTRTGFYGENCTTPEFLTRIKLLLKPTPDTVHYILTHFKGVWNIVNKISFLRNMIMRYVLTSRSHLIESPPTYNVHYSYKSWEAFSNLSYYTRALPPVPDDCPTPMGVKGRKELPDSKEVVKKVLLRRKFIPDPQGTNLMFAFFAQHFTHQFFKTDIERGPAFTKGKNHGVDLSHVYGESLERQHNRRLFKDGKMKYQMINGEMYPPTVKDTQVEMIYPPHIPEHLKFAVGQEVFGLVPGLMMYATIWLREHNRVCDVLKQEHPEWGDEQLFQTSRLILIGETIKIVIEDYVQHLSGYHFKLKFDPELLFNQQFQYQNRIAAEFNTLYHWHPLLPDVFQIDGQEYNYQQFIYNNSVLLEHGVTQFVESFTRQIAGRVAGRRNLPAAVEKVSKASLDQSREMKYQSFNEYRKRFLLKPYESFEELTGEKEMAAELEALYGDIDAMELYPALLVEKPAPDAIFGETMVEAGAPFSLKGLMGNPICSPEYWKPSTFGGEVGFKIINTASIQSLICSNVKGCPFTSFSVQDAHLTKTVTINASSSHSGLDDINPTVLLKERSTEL
As to the kind of experiment: Cox-1/Cox-2 enzyme assay (Cox-2). Type of data set: biochemical. As to conditions: for IC50: enzyme assay. On the procedure: as §1, §2, §3

A further data set has as its target T3, Cox-1 (Homo sapiens, UniProt P23219).
T3 construct: from tissue; host or cells: fresh human whole blood
The data set is described as follows: Cox-1 activity in human whole blood (TXB2). Type of data set: cell-based. As to conditions: read-out: hWB inhibition COX-1 IC50. The protocol:
(§4) II. Determination of Cox-1- and Cox-2-Activity in Human Whole Blood
(§5) The Cox-1- and Cox-2-activity in human whole blood is determined according to a modification of the method described in the publication of C. Brideau et al., “A human whole blood assay for clinical evaluation of biochemical efficacy of cyclooxygenase inhibitors”, Inflamm Res 1996; 45: 68-74. The respective part of the description is hereby incorporated by reference and forms part of the present disclosure.
For Cox-1 activity determination, fresh human blood is distributed in a volume of 0.5 ml to silicone Eppendorf tubes, into which 2 μl of the compound to be tested or dimethylsulfoxide (DMSO) at a final concentration of 0.4% (volume/volume). The tubes are inverted for homogenization and incubated for 1 hour at 37° C. under slight stirring. Afterwards they are centrifuged for 15 min at 10500 g and 100 μl of serum is collected. Proteins are precipitated by the addition of 400 μl of methanol to each tube, tubes were centrifuged for 10 minutes at 5000 g and 300 μl of supernatant is aspirated and then dried under nitrogen atmosphere.
Tromboxane B2 (TXB2) concentration is quantified using an assay kit (Caymann Chemical, Ann Arbor, Mich., U.S.A., Catalogue number 519031) after reconstitution into 300 μl assay buffer supplied in the assay kit.

The next data set deals with T4, Cox-2 (Homo sapiens, UniProt P35354).
T4 construct: 0.5 ml of fresh human blood; from tissue; host or cells: fresh human whole blood stimulated with E. coli 0111:B4 LPS
T4 sequence (P35354 18-604): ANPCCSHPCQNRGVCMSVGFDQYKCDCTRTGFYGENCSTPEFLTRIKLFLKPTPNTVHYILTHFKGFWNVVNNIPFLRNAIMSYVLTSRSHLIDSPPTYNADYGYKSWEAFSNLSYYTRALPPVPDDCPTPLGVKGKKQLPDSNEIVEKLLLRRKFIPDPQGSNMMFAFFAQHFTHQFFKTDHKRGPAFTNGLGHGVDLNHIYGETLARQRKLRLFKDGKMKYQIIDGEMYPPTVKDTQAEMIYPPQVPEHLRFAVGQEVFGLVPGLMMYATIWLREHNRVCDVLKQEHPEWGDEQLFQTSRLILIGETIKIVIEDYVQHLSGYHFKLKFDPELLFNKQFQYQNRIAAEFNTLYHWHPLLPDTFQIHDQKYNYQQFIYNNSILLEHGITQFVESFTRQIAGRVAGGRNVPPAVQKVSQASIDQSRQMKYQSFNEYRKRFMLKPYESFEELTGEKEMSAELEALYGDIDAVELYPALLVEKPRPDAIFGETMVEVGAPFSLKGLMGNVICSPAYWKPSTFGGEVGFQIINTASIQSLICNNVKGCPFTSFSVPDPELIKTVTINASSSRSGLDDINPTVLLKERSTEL
The data set is described as follows: Cox-2 activity in human whole blood (LPS, PGE2). Type of data set: cell-based. As to conditions: read-out: hWB inhibition COX-2 IC50. On the procedure:
as §4, §5
For Cox-2 activity determination, tubes are prepared with 2 μl of the compound to be tested or DMSO, 12 μg/ml of aspirine, 9 μl of 1% (weight/volume) sodium heparine and 0.5 ml of fresh human blood. Samples are pre-incubated at 37° C. during 15 minutes and E. coli 0111:B4 LPS (from Sigma Chemical, St. Louis, Mo. U.S.A., catalogue number L-3012) are added for incubation during 24 h at 37° C. The samples are centrifuged for 100 μl of plasma collection. 400 μl of Ethyl acetate and 1% (volume/volume) methanol are added to each sample and the tubes are stirred and centrifuged for 10 minutes at 5000 g at 4° C. 300μl of supernatant are aspirated and evaporated under nitrogen atmosphere. Prostaglandin E2 concentration is quantified using an assay kit from Cayman Chemical, Ann-Arbor, Mich., U.S.A. (Catalogue number: 514010 ) after reconstitution into 300 μl assay buffer supplied in the assay kit.

In the next data set the test system is rats. As to the kind of experiment: Test for antiarthritic activity in rats (adjuvant). Type of data set: in vivo. The following applies: Rattus norvegicus, daily oral route from day 15, read on day 25. On the procedure: V: Test for Antiarthritic Activity in Rats
The test for antiarthritic activity is carried out as described in the publication of Anderson et al., J. Clin. Invest. 97, 11, 2672-2679, (1996). The respective part of the description is hereby incorporated by reference and forms part of the present disclosure.
On day 0 of the experiment, the volumes of the contralateral paws to those injected, i.e. left hind paws, are measured by means of a pletismometer, the readings of which are expressed in ml.
Next, each rat is injected the adjuvant, consisting of 1 mg of Mycobacterium butyricum suspended in 0.1 ml of mineral oil, via subplantar route in the right hind paw.
Approximately every day, and for 15 days after the injection of adjuvant, the volumes of non-injected hind paws (contralateral) are measured again. […]
On day 15 of the experiment, daily administration of the compounds to be tested via oral route is started, and on each day, the volumes of non-injected hind paws is recorded.
On Day 25 of the experiment, the body weights and non-injected hind paws (contralateral) volumes are measured for the last time, and these values were used to determine the activities.

T3 sequence (P23219 24-599): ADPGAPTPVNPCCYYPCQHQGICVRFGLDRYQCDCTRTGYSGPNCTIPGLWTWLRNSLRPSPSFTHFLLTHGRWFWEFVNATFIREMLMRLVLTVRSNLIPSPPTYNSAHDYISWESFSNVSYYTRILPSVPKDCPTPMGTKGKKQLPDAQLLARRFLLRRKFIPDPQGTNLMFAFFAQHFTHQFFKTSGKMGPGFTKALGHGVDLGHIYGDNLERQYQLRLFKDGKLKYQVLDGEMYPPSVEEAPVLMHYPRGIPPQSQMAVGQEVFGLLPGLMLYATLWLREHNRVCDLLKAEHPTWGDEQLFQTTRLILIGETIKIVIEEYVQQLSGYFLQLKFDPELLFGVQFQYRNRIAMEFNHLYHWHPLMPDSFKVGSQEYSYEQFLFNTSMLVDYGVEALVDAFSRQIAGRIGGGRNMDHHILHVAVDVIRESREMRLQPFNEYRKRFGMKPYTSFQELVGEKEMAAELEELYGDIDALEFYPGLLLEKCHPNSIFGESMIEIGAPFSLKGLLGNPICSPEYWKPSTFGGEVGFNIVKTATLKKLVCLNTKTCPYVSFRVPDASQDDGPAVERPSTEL

Compound `CC(C)(C)c1cc(C(=O)N2CC(O)C2)cc(C(C)(C)C)c1O` [Example 1, (3,5-di-tert-butyl-4-hydroxy-phenyl)-(3-hydroxy-azetidin-1-yl)-methanone] registered a melting point of 185 to 189 °C. On Cox-1 enzyme, this compound gave an IC50 of 37700 nM. At Cox-2 enzyme, the IC50 came to 1510 nM. The IC50 on Cox-1 was found to be 100 nM. For the same compound, on Cox-2, the IC50 was found to be 200 nM. Besides, the ED50 in the data set on rats stood at 0.5 mg/kg.

In the case of `CC1(O)CN(C(=O)c2cc(C(C)(C)C)c(O)c(C(C)(C)C)c2)C1` [Example 3, (3,5-di-tert-butyl-4-hydroxy-phenyl)-(3-hydroxy-3-methyl-azetidin-1-yl)-methanone], the melting point was in the range of 148 to 153 °C. In addition, at Cox-1 enzyme, the IC50 stood at 349000 nM. At Cox-2 enzyme, this compound yielded an IC50 of 3510 nM. The IC50 at Cox-1 worked out at 100 nM. The IC50 at Cox-2 came to 100 nM. Besides, the ED50 with rats amounted to 0.34 mg/kg.

For `CC(C)(C)c1cc(C(=O)N2CC(Br)C2)cc(C(C)(C)C)c1O` [Example 7, (3-Bromo-azetidin-1-yl)-(3,5-di-tert-butyl-4-hydroxy-phenyl)-methanone], the melting point was 160 to 163 °C. At Cox-1 enzyme, the inhibition at 50 µM was 35%. Moreover, half-maximal inhibition against Cox-2 enzyme (IC50) was put at 200 nM.

For `CC(C)(C)c1cc(CC(=O)N2CC(O)C2)cc(C(C)(C)C)c1O` [Example 18, 2-(3,5-di-tert-butyl-4-hydroxy-phenyl)-1-(3-hydroxy-azetidin-1-yl)-ethanone], the melting point fell in the range of 154 to 156 °C. In addition, the inhibition at 50 µM on Cox-1 enzyme came to 4%. Moreover, on Cox-2 enzyme (read-out: % inhibition 5 × 10^−5 M COX-2), the inhibition at 50 µM was 1%.
